The record followed here is US20250262201A1, “COMPOUNDS AND METHODS USEFUL FOR STABILIZING PHENYLALANINE HYDROXYLASE MUTATIONS” (Agios Pharmaceuticals, Inc., priority 2022, published 2025).

Some results are limits rather than exact numbers.

Usually AC50 stands for the concentration giving half of the maximal activity seen.

This test deals with T1, human PAH with the R408W mutation (Homo sapiens, UniProt P00439, R408W).
T1 construct: expressed in transfected cells
T1 sequence (P00439 1-452 R408W): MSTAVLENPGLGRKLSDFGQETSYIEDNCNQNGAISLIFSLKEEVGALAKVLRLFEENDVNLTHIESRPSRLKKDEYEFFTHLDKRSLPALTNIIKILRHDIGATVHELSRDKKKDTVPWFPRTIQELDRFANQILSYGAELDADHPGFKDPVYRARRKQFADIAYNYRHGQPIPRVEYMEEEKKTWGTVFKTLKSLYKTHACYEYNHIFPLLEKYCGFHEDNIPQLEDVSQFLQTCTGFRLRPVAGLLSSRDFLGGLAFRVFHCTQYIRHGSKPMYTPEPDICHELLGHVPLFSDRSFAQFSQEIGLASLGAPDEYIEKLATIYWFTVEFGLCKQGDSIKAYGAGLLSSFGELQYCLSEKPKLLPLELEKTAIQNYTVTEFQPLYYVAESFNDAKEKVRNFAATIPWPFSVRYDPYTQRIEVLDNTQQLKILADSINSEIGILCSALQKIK
In words: Cell Based Phenylalanine Flux Assay. The conditions noted are these: A375 cells expressing human R408W PAH; 24 hrs compound incubation; 13C-Tyrosine by LC-MS; average where tested multiple times; read-out: AC50.
As to `Cn1cncc1-c1nc(C(F)F)c(C(=O)N2CCc3[nH]cnc3[C@@H]2c2ncc3ccccc3n2)o1` [Example 281, (R)-(4-(difluoromethyl)-2-(1-methyl-1H-imidazol-5-yl)oxazol-5-yl)(4-(quinazolin-2-yl)-6,7-dihydro-1H-imidazo[4,5-c]pyridin-5(4H)-yl)methanone], the concentration at half-maximal activity (AC50) was in the range of 500 to 1000 nM.

Regarding `O=C(c1cnco1)N1CCc2[nH]cnc2[C@H]1c1ccc2ccccc2c1` [Example 283, (R)-(4-(naphthalen-2-yl)-6,7-dihydro-1H-imidazo[4,5-c]pyridin-5(4H)-yl)(oxazol-5-yl)methanone], the AC50 is 500 to 1000 nM.

Regarding `O=C(c1cnc(-c2ccccn2)s1)N1CCc2[nH]cnc2[C@H]1c1cc2ccccc2cn1` [Example 300, (R)-(4-(isoquinolin-3-yl)-6,7-dihydro-1H-imidazo[4,5-c]pyridin-5(4H)-yl)(2-(pyridin-2-yl)thiazol-5-yl)methanone], the concentration at half-maximal activity (AC50) is < 500 nM.

Take `O=C(c1cnc(-c2ccccn2)s1)N1CCc2[nH]cnc2[C@@H]1c1cc2ccccc2cn1` [Example 301, (S)-(4-(isoquinolin-3-yl)-6,7-dihydro-1H-imidazo[4,5-c]pyridin-5(4H)-yl)(2-(pyridin-2-yl)thiazol-5-yl)methanone]: the half-maximal activity concentration (AC50) is > 5000 nM.

Regarding `Cn1cc(-c2ncc(C(=O)N3CCc4[nH]cnc4[C@H]3c3cc4ccccc4cn3)s2)cn1` [Example 302, (R)-(4-(isoquinolin-3-yl)-6,7-dihydro-1H-imidazo[4,5-c]pyridin-5(4H)-yl)(2-(1-methyl-1H-pyrazol-4-yl)thiazol-5-yl)methanone], the half-maximal activity concentration (AC50) was < 500 nM.

On to `Cn1cc(-c2ncc(C(=O)N3CCc4[nH]cnc4[C@@H]3c3cc4ccccc4cn3)s2)cn1` [Example 303, (S)-(4-(isoquinolin-3-yl)-6,7-dihydro-1H-imidazo[4,5-c]pyridin-5(4H)-yl)(2-(1-methyl-1H-pyrazol-4-yl)thiazol-5-yl)methanone], for which the AC50 was > 5000 nM.

For `O=C(c1cnc(-c2cnn(CC(F)(F)F)c2)o1)N1CCc2[nH]cnc2[C@@H]1c1cc2ccccc2cn1` [Example 304, (S)-(4-(isoquinolin-3-yl)-6,7-dihydro-1H-imidazo[4,5-c]pyridin-5(4H)-yl)(2-(1-(2,2,2-trifluoroethyl)-1H-pyrazol-4-yl)oxazol-5-yl)methanone], the AC50 was > 5000 nM.

As to `O=C(c1cnc(-c2cnn(CC(F)(F)F)c2)o1)N1CCc2[nH]cnc2[C@H]1c1cc2ccccc2cn1` [Example 305, (R)-(4-(isoquinolin-3-yl)-6,7-dihydro-1H-imidazo[4,5-c]pyridin-5(4H)-yl)(2-(1-(2,2,2-trifluoroethyl)-1H-pyrazol-4-yl)oxazol-5-yl)methanone], the AC50 is < 500 nM.

As for `O=C(c1cnc(-c2cnn(CC(F)(F)F)c2)s1)N1CCc2[nH]cnc2[C@H]1c1cc2ccccc2cn1` [Example 306, (R)-(4-(isoquinolin-3-yl)-6,7-dihydro-1H-imidazo[4,5-c]pyridin-5(4H)-yl)(2-(1-(2,2,2-trifluoroethyl)-1H-pyrazol-4-yl)thiazol-5-yl)methanone], the AC50 lay in the range of 500 to 1000 nM.

Consider `O=C(c1cnc(-c2cnn(CC(F)(F)F)c2)s1)N1CCc2[nH]cnc2[C@@H]1c1cc2ccccc2cn1` [Example 307, (S)-(4-(isoquinolin-3-yl)-6,7-dihydro-1H-imidazo[4,5-c]pyridin-5(4H)-yl)(2-(1-(2,2,2-trifluoroethyl)-1H-pyrazol-4-yl)thiazol-5-yl)methanone], for which the AC50 is > 5000 nM.

With `O=C(c1cnc(-c2ccccn2)o1)N1CCc2[nH]cnc2[C@H]1c1cc2ccccc2cn1` [Example 308, (R)-(4-(isoquinolin-3-yl)-6,7-dihydro-1H-imidazo[4,5-c]pyridin-5(4H)-yl)(2-(pyridin-2-yl)oxazol-5-yl)methanone], the AC50 is < 500 nM.

For the compound `O=C(c1cnc(-c2ccccn2)o1)N1CCc2[nH]cnc2[C@@H]1c1cc2ccccc2cn1` [Example 309, (S)-(4-(isoquinolin-3-yl)-6,7-dihydro-1H-imidazo[4,5-c]pyridin-5(4H)-yl)(2-(pyridin-2-yl)oxazol-5-yl)methanone], the concentration at half-maximal activity (AC50) is > 5000 nM.

Consider `Cn1cc(-c2ncc(C(=O)N3CCc4[nH]cnc4[C@H]3c3cc4ccccc4cn3)o2)cn1` [Example 311, (R)-(4-(isoquinolin-3-yl)-6,7-dihydro-1H-imidazo[4,5-c]pyridin-5(4H)-yl)(2-(1-methyl-1H-pyrazol-4-yl)oxazol-5-yl)methanone], for which the half-maximal activity concentration (AC50) is < 500 nM.

In the case of `O=C(c1cnc(-c2ccc(F)cn2)s1)N1CCc2[nH]cnc2[C@@H]1c1cc2ccccc2cn1` [Example 313, (S)-(2-(5-fluoropyridin-2-yl)thiazol-5-yl)(4-(isoquinolin-3-yl)-6,7-dihydro-1H-imidazo[4,5-c]pyridin-5(4H)-yl)methanone], the half-maximal activity concentration (AC50) lay within 1000 to 5000 nM.

Take `COCc1ccc2c(C(=O)N3CCc4[nH]cnc4[C@H]3c3cc4ccccc4cn3)cnn2c1` [Example 314, (R)-(4-(isoquinolin-3-yl)-6,7-dihydro-1H-imidazo[4,5-c]pyridin-5(4H)-yl)(6-(methoxymethyl)pyrazolo[1,5-a]pyridin-3-yl)methanone]: the half-maximal activity concentration (AC50) was < 500 nM.

For the compound `COCc1ccc2c(C(=O)N3CCc4[nH]cnc4[C@@H]3c3cc4ccccc4cn3)cnn2c1` [Example 315, (S)-(4-(isoquinolin-3-yl)-6,7-dihydro-1H-imidazo[4,5-c]pyridin-5(4H)-yl)(6-(methoxymethyl)pyrazolo[1,5-a]pyridin-3-yl)methanone], the concentration at half-maximal activity (AC50) was > 5000 nM.

Turning to `CC(C)(C)c1ncc(C(=O)N2CCc3[nH]cnc3[C@H]2c2cc3ccccc3cn2)s1` [Example 316, (R)-(2-(tert-butyl)thiazol-5-yl)(4-(isoquinolin-3-yl)-6,7-dihydro-1H-imidazo[4,5-c]pyridin-5(4H)-yl)methanone], the AC50 is < 500 nM.

Take `CC(C)(C)c1ncc(C(=O)N2CCc3[nH]cnc3[C@@H]2c2cc3ccccc3cn2)s1` [Example 317, (S)-(2-(tert-butyl)thiazol-5-yl)(4-(isoquinolin-3-yl)-6,7-dihydro-1H-imidazo[4,5-c]pyridin-5(4H)-yl)methanone]: the concentration at half-maximal activity (AC50) is > 5000 nM.

For `Cc1nnc(C(=O)N2CCc3[nH]cnc3[C@H]2c2cc3ccccc3cn2)o1` [Example 318, (R)-(4-(isoquinolin-3-yl)-6,7-dihydro-1H-imidazo[4,5-c]pyridin-5(4H)-yl)(5-methyl-1,3,4-oxadiazol-2-yl)methanone], the concentration at half-maximal activity (AC50) is < 500 nM.

Take `Cc1nnc(C(=O)N2CCc3[nH]cnc3[C@@H]2c2cc3ccccc3cn2)o1` [Example 319, (S)-(4-(isoquinolin-3-yl)-6,7-dihydro-1H-imidazo[4,5-c]pyridin-5(4H)-yl)(5-methyl-1,3,4-oxadiazol-2-yl)methanone]: the AC50 was > 5000 nM.

As to `O=C(c1cnco1)N1CCc2[nH]cnc2[C@H]1c1cc2ccccc2cn1` [Example 320, (R)-(4-(isoquinolin-3-yl)-6,7-dihydro-1H-imidazo[4,5-c]pyridin-5(4H)-yl)(oxazol-5-yl)methanone], the AC50 is < 500 nM.

Take `O=C(c1cnco1)N1CCc2[nH]cnc2[C@@H]1c1cc2ccccc2cn1` [Example 321, (S)-(4-(isoquinolin-3-yl)-6,7-dihydro-1H-imidazo[4,5-c]pyridin-5(4H)-yl)(oxazol-5-yl)methanone]: the AC50 was 1000 to 5000 nM.

In the case of `Cn1cc(-c2nnc(C(=O)N3CCc4[nH]cnc4[C@H]3c3cc4ccccc4cn3)o2)cn1` [Example 322, (R)-(4-(isoquinolin-3-yl)-6,7-dihydro-1H-imidazo[4,5-c]pyridin-5(4H)-yl)(5-(1-methyl-1H-pyrazol-4-yl)-1,3,4-oxadiazol-2-yl)methanone], the half-maximal activity concentration (AC50) was < 500 nM.

Consider `Cn1cc(-c2nnc(C(=O)N3CCc4[nH]cnc4[C@@H]3c3cc4ccccc4cn3)o2)cn1` [Example 323, (S)-(4-(isoquinolin-3-yl)-6,7-dihydro-1H-imidazo[4,5-c]pyridin-5(4H)-yl)(5-(1-methyl-1H-pyrazol-4-yl)-1,3,4-oxadiazol-2-yl)methanone], for which the AC50 is > 5000 nM.

Turning to `O=C(c1nnc(-c2ccccn2)o1)N1CCc2[nH]cnc2[C@H]1c1cc2ccccc2cn1` [Example 324, (R)-(4-(isoquinolin-3-yl)-6,7-dihydro-1H-imidazo[4,5-c]pyridin-5(4H)-yl)(5-(pyridin-2-yl)-1,3,4-oxadiazol-2-yl)methanone], the AC50 was < 500 nM.

In the case of `O=C(c1nnc(-c2ccccn2)o1)N1CCc2[nH]cnc2[C@@H]1c1cc2ccccc2cn1` [Example 325, (S)-(4-(isoquinolin-3-yl)-6,7-dihydro-1H-imidazo[4,5-c]pyridin-5(4H)-yl)(5-(pyridin-2-yl)-1,3,4-oxadiazol-2-yl)methanone], the AC50 was > 5000 nM.

Turning to `O=C(c1nnc(C2CC2)o1)N1CCc2[nH]cnc2[C@H]1c1cc2ccccc2cn1` [Example 326, (R)-(5-cyclopropyl-1,3,4-oxadiazol-2-yl)(4-(isoquinolin-3-yl)-6,7-dihydro-1H-imidazo[4,5-c]pyridin-5(4H)-yl)methanone], the concentration at half-maximal activity (AC50) was < 500 nM.

Take `CC(C)(O)c1ncc(C(=O)N2CCc3[nH]cnc3[C@H]2c2cc3ccccc3cn2)s1` [Example 328, (R)-(2-(2-hydroxypropan-2-yl)thiazol-5-yl)(4-(isoquinolin-3-yl)-6,7-dihydro-1H-imidazo[4,5-c]pyridin-5(4H)-yl)methanone]: the concentration at half-maximal activity (AC50) was in the range of 500 to 1000 nM.
